Measured values from publication PMC6207662, “Postprandial glycaemia-lowering effect of a green tea cultivar Sunrouge and cultivar-specific metabolic profiling for determining bioactivity-related ingredients” (Scientific Reports, 2018).

Tests used:
[1] = target: T1, α-Glucosidase from Saccharomyces cerevisiae (Saccharomyces cerevisiae, UniProt P53341); assay: Assay of α-glucosidase activity (cell-free, QuantiChrom kit); assay type: biochemical; conditions: for IC50: cell-free system; for order of α-glucosidase inhibitory rate: 10 μM, n=3, Supplementary Fig. S4; for enhancement of α-glucosidase inhibitory ability by O-methylation (IC50 ratio non-methylated/methylated): IC50 of parent catechin / IC50 of its 3”-O-methylated form
T1 construct: purchased Sigma-Aldrich
T1 sequence (P53341 whole entry): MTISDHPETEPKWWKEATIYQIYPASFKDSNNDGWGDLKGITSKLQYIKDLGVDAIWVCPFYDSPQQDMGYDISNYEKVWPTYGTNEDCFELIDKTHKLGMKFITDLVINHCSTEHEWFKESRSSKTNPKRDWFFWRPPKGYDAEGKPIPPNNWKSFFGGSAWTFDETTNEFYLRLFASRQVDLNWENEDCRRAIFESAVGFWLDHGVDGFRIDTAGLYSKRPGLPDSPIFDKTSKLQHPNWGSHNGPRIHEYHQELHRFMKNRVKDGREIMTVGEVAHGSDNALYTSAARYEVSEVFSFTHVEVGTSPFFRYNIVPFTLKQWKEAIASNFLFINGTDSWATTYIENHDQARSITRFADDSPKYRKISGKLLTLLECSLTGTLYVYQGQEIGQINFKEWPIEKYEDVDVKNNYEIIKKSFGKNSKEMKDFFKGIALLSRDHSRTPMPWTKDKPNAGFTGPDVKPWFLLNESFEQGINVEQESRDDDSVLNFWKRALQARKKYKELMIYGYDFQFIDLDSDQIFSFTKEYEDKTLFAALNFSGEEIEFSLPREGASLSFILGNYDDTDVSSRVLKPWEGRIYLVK
Experimental: α-Glucosidase from Saccharomyces cerevisiae (Sigma-Aldrich) was dissolved in phosphate buffered saline (PBS) at a concentration of 0.01 mg/mL. Tea extracts were diluted 1:10 with distilled water. Tea extracts or various concentrations of flavonoids in DMSO were mixed 1:1 with the α-glucosidase solution. The α-glucosidase activity of the mixture was measured by the QuantiChrom™ α-Glucosidase Assay Kit (Bio Assay Systems, Hayward, CA, USA) according to the manufacturer’s instructions.

[2] = test system: postprandial blood glucose level; assay: Starch tolerance test in mice (postprandial blood glucose); assay type: in vivo, mice (male ICR); conditions: compound 500 mg/kg b.w. with soluble starch 2,000 mg/kg b.w., Supplementary Fig. S5
Experimental: Nine-week-old male ICR mice were purchased from Kyudo Company (Saga, Japan). All mice were housed and maintained in a temperature and humidity controlled room with a 12-h light-dark cycle (light from 8 am to 8 pm). All animal studies were performed in accordance with the law (protocol no. 105) and notification (protocol no. 6) of the Japanese government for the welfare of experimental animals. The study protocol was approved by the Animal Care and Use Committee, Kyushu University (Kyushu University, Scientific Research Promotion Division). Mice were randomly divided into 3 groups (n = 8) with equivalent mean body weight and starved overnight. Mice were orally administered with soluble starch (2,000 mg/kg b.w.) (Wako, Osaka, Japan) alone, or in combination with a test sample. All solutions were made in distilled water. Blood was sampled from the tail vein at before (t = 0), 30, 60, 90, 120 and 150 min after administration. The blood glucose level was measured with the Medisafe Mini GR-102 (Terumo Co., Tokyo, Japan) and the areas under the curves (AUC) were calculated.

## Oc1cc(O)c2cc(O)c(-c3cc(O)c(O)c(O)c3)[o+]c2c1 [Del, delphinidin]
[1]
  IC50: 31.6 µM

## OC[C@H]1O[C@@H](Oc2cc3c(O)cc(O)cc3[o+]c2-c2cc(O)c(O)c(O)c2)[C@H](O)[C@@H](O)[C@@H]1O [Del-glu, delphinidin-3-O-glucoside]
[1]
  IC50: > 100 µM

## COc1cc(C(=O)O[C@@H]2Cc3c(O)cc(O)cc3O[C@@H]2c2ccc(O)c(O)c2)cc(O)c1O [ECG3”Me, epicatechin-3-O-(3-O-methyl) gallate]
[1]
  order of α-glucosidase inhibitory rate: EGCG3”Me > EGCG > ECG3”Me > ECG
  IC50: 14.7 µM

## O=c1c(O)c(-c2cc(O)c(O)c(O)c2)oc2cc(O)cc(O)c12 [Myr, myricetin]
[2]
  elevation of postprandial blood glucose level in oral starch tolerance test: suppressed the elevation of postprandial blood glucose level
[1]
  IC50: 4.4 µM

## O=c1c(OC2O[C@H](CO)[C@@H](O)[C@H](O)[C@H]2O)c(-c2cc(O)c(O)c(O)c2)oc2cc(O)cc(O)c12 (some centres unmarked) [Myr-glu, myricetin-3-O-glucoside]
[1]
  IC50: > 100 µM

## CCNC(=O)CC[C@H](N)C(=O)O [theanine, L-theanine]
[1]; Supplementary Fig. S2
  effect on the activity of α-glucosidase: elevated the activity of α-glucosidase

## epicatechin-3-O-gallate [ECG]
[1]
  order of α-glucosidase inhibitory rate: EGCG3”Me > EGCG > ECG3”Me > ECG
  enhancement of α-glucosidase inhibitory ability by O-methylation (IC50 ratio non-methylated/methylated): 4.2 fold
  IC50: 61.1 µM

## epigallocatechin-3-O-(3-O-methyl) gallate [EGCG3”Me]
[1]
  order of α-glucosidase inhibitory rate: EGCG3”Me > EGCG > ECG3”Me > ECG
  IC50: 8.1 µM

## epigallocatechin-3-O-gallate [EGCG]
[2]
  elevation of postprandial blood glucose level in oral starch tolerance test: suppressed the elevation of postprandial blood glucose level
[1]
  order of α-glucosidase inhibitory rate: EGCG3”Me > EGCG > ECG3”Me > ECG
  enhancement of α-glucosidase inhibitory ability by O-methylation (IC50 ratio non-methylated/methylated): 1.6 fold
  IC50: 13.3 µM
